Structures can show the parent of a compound that is named as a salt.
Each compound was assayed against S1P1/EDG1 (Homo sapiens, UniProt P21453) (assay: S1P1 CRE-bla CHOK1 reporter assay, inhibition of Forskolin induced cAMP). Details: agonist activity range; S1P1 CRE-bla CHOK1 cells, 2 μM Forskolin; read-out: S1P1 ACTIVITY.
Assay type: cell-based
Protocol: Generation of S1P1-Mediated Inhibition of cAMP Reporter Assay
A mammalian expression plasmid containing S1P1/EDG1 cloned into pcDNA3.1 was purchased from Missouri S&T cDNA Resource Centre. […] S1P1/pcDNA3.1 was transfected into the CRE-bla CHO K1 (Invitrogen) cell line, and stable single cell clones were selected using standard techniques.
S1P1 CRE-Bla CHOK1 Reporter Assay—Characterization of S1P1 Agonists
Cells were seeded into 384-well black wall/clear bottom plates at 10^4 cells/well/19.5 μl assay media (DMEM-phenol free, 0.5% charcoal/dextran stripped serum, 2 mM glutamine, 0.1 mM NEAA, 1 mM Na-Pyruvate, 25 mM Hepes) and incubated for 18 hrs at 37° C. in 5% CO2. Dose response curves (10-point) were generated in 10 mM Hepes, 0.1% Pluronic F127, in the presence of Forskolin. Cells were treated with 0.5 μl compound in the presence of 2 μM Forskolin for 4 hrs at 37° C. The FRET-based β-lactamase fluorescent substrate (LiveBLAzer™-FRET B/G Loading Kit CC4-AM; Invitrogen) was prepared according to manufacturer's directions, and incubated with cells for 2 hrs at room temperature.

Sequence of S1P1/EDG1 (P21453 whole entry): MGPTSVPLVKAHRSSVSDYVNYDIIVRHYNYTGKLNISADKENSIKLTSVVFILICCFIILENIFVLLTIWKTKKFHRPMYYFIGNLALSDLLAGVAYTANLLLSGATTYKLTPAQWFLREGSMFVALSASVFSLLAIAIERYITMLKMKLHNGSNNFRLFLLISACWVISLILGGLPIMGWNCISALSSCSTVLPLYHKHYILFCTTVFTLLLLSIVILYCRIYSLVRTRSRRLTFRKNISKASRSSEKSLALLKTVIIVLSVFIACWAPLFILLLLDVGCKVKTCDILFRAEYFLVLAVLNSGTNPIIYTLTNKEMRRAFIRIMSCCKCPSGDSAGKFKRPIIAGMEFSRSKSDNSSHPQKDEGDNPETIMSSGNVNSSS

Compared with `COCCS(=O)(=O)N[C@H]1CCCc2c(-c3nnc(-c4ccc(OC(C)C)c(C#N)c4)s3)cccc21` [Compound 281, (S)—N-(5-(5-(3-cyano-4-isopropoxyphenyl)-1,3,4-thiadiazol-2-yl)-1,2,3,4-tetrahydronaphthalen-1-yl)-2-methoxyethanesulfonamide], `COCCS(=O)(=O)N[C@@H]1CCCc2c(-c3nnc(-c4ccc(OC(C)C)c(C#N)c4)s3)cccc21` [Compound 280, (R)—N-(5-(5-(3-cyano-4-isopropoxyphenyl)-1,3,4-thiadiazol-2-yl)-1,2,3,4-tetrahydronaphthalen-1-yl)-2-methoxyethanesulfonamide] is higher in EC50: 50 to 500 pM for the first, 500 to 5000 pM for the second.

`CC(C)Oc1ccc(-c2nnc(-c3cccc4c3CCC[C@H]4N)s2)cc1C#N` [Compound 228, (R)-5-(5-(5-amino-5,6,7,8-tetrahydronaphthalen-1-yl)-1,3,4-thiadiazol-2-yl)-2-isopropoxybenzonitrile hydrochloride] and `CC(C)Oc1ccc(-c2nnc(-c3cccc4c3CC[C@H]4N)s2)cc1C#N` [Compound 5, (R)-5-(5-(1-amino-2,3-dihydro-1H-inden-4-yl)-1,3,4-thiadiazol-2-yl)-2isopropoxybenzonitrile hydrochloride] fall in the same range of EC50: 500 to 5000 pM for the first, 500 to 5000 pM for the second.

Compared with `CC(C)Oc1ccc(-c2ncc(-c3cccc4c3CC[C@H]4NC(=O)N3CC[C@@H](N(C)C)C3)s2)cc1C#N` [Compound 183], `CC(C)Oc1ccc(-c2ncc(-c3cccc4c3CC[C@H]4NC(=O)N3CCC(N(C)C)CC3)s2)cc1C#N` [Compound 192] is higher in EC50: 500 to 5000 pM for the first, over 5000 pM for the second.

`CC(C)Oc1ccc(-c2nnc(-c3cccc4c3CCC[C@H]4NC(=O)CN(C)C)s2)cc1C#N` [Compound 236] and `CC(C)Oc1ccc(-c2nnc(-c3cccc4c3CCC[C@@H]4NC(=O)CN(C)C)s2)cc1C#N` [Compound 238] fall in the same range of EC50: 500 to 5000 pM for the first, 500 to 5000 pM for the second.

`CC(C)Oc1ccc(-c2ncc(-c3cccc4c3CC[C@@H]4NC(=O)N3CCC[C@@H](O)C3)s2)cc1C#N` [Compound 196] and `CC(C)Oc1ccc(-c2ncc(-c3cccc4c3CC[C@H]4NC(=O)N3CCC(O)CC3)s2)cc1C#N` [Compound 202] fall in the same range of EC50: 500 to 5000 pM for the first, 500 to 5000 pM for the second.

`CC(C)Oc1ccc(-c2ncc(-c3cccc4c3CC[C@H]4NC(=O)CO)s2)cc1C#N` [Compound 74] and `CC(=O)N[C@@H]1CCc2c(-c3cnc(-c4ccc(OC(C)C)c(C#N)c4)s3)cccc21` [Compound 87] fall in the same range of EC50: 50 to 500 pM for the first, 50 to 500 pM for the second.

First: CC(C)Oc1ccc(-c2nnc(-c3cccc4c3CC[C@H]4NCC(=O)N(C)C)s2)cc1C#N [Compound 22, (R)-2-((4-(5-(3-cyano-4-isopropoxyphenyl)-1,3,4-thiadiazol-2-yl)-2,3-dihydro-1H-inden-1-yl)amino)-N,N-dimethylacetamide hydrochloride]
Second: CC(C)Oc1ccc(-c2nnc(-c3cccc4c3CC[C@H]4NC(=O)CN(C)C)s2)cc1C#N [Compound 49]
The EC50 of the first is lower: 50 to 500 pM for the first, 500 to 5000 pM for the second.

`CC(C)Oc1ccc(-c2ncc(-c3cccc4c3CCC[C@H]4NS(N)(=O)=O)s2)cc1C#N` [Compound 277, (R)—N-(5-(2-(3-cyano-4-isopropoxyphenyl)thiazol-5-yl)-1,2,3,4-tetrahydronaphthalen-1-yl)sulfamide] and `CC(C)Oc1ccc(-c2nnc(-c3cccc4c3CCC[C@H]4NS(N)(=O)=O)s2)cc1C#N` [Compound 275, (R)—N-(5-(5-(3-cyano-4-isopropoxyphenyl)-1,3,4-thiadiazol-2-yl)-1,2,3,4-tetrahydronaphthalen-1-yl) sulfamide] fall in the same range of EC50: 50 to 500 pM for the first, 50 to 500 pM for the second.

First: CC(C)Oc1ccc(-c2ncc(-c3cccc4c3CC[C@H]4NC(=O)CN(C)C)s2)cc1C#N [Compound 81]
Second: CC(C)Oc1ccc(-c2ncc(-c3cccc4c3CC[C@H]4O)s2)cc1C#N [Compound 69, (R)-5-(5-(1-hydroxy-2,3-dihydro-1H-inden-4-yl)thiazol-2-yl)-2-isopropoxy benzonitrile]
The EC50 of the first is higher: 500 to 5000 pM for the first, 50 to 500 pM for the second.

`CC(C)Oc1ccc(-c2nnc(-c3cccc4c3CCC[C@H]4NC(=O)CCNS(C)(=O)=O)s2)cc1C#N` [Compound 258] and `CNCCC(=O)N[C@@H]1CCCc2c(-c3nnc(-c4ccc(OC(C)C)c(C#N)c4)s3)cccc21` [Compound 260] fall in the same range of EC50: 500 to 5000 pM for the first, 500 to 5000 pM for the second.

`CC(C)Oc1ccc(-c2nnc(-c3cccc4c3CC[C@H]4NC(=O)N3CCC(O)CC3)s2)cc1C#N` [Compound 62] and `CC(C)Oc1ccc(-c2nnc(-c3cccc4c3CCC4NS(=O)(=O)CCN3CC[C@@H](O)C3)s2)cc1C#N` (stereo in doubt) [Compound 38, N—((R)-4-(5-(3-cyano-4-isopropoxyphenyl)-1,3,4-thiadiazol-2-yl)-2,3-dihydro-1H-inden-1-yl)-2-((R)-3-hydroxypyrrolidin-1-yl)ethanesulfonamide] fall in the same range of EC50: 500 to 5000 pM for the first, 500 to 5000 pM for the second.

First: CC(C)Oc1ccc(-c2nnc(-c3cccc4c3CCC[C@@H]4NCc3ncc[nH]3)s2)cc1C#N [Compound 266]
Second: CC(C)Oc1ccc(-c2nnc(-c3cccc4c3CCC[C@H]4NCc3ccccn3)s2)cc1C#N [Compound 264]
The EC50 of the first is lower: 50 to 500 pM for the first, 500 to 5000 pM for the second.

`CNC(=O)CCS(=O)(=O)N[C@H]1CCCc2c(-c3nnc(-c4ccc(OC(C)C)c(C#N)c4)s3)cccc21` [Compound 298, (S)-3-(N-(5-(5-(3-cyano-4-isopropoxyphenyl)-1,3,4-thiadiazol-2-yl)-1,2,3,4-tetrahydronaphthalen-1-yl)sulfamoyl)-N-methylpropanamide] and `CNC(=O)CS(=O)(=O)N[C@H]1CCCc2c(-c3nnc(-c4ccc(OC(C)C)c(C#N)c4)s3)cccc21` [Compound 295] fall in the same range of EC50: 50 to 500 pM for the first, 50 to 500 pM for the second.

First: CC(C)Oc1ccc(-c2ncc(-c3cccc4c3CC[C@H]4NCC(=O)N3CCCC3)s2)cc1C#N [Compound 100]
Second: CC(C)Oc1ccc(-c2ncc(-c3cccc4c3CC[C@H]4NC(=O)N3CCNCC3)s2)cc1C#N [Compound 188]
The EC50 of the first is lower: 50 to 500 pM for the first, 500 to 5000 pM for the second.

`CC(C)Oc1ccc(-c2ncc(-c3cccc4c3CC[C@H]4NC(=O)N3CC[C@H](N)C3)s2)cc1C#N` [Compound 179] and `CC(C)Oc1ccc(-c2ncc(-c3cccc4c3CC[C@H]4NS(=O)(=O)CCN3CC[C@H](O)C3)s2)cc1C#N` [Compound 134] fall in the same range of EC50: 500 to 5000 pM for the first, 500 to 5000 pM for the second.

First: COC(=O)CCS(=O)(=O)N[C@@H]1CCc2c(-c3cnc(-c4ccc(OC(C)C)c(C#N)c4)s3)cccc21 [Compound 156]
Second: CC(C)Oc1ccc(-c2ncc(-c3cccc4c3CC[C@H]4NS(=O)(=O)CCN3CCCC3)s2)cc1C#N [Compound 130]
The EC50 of the first is lower: 50 to 500 pM for the first, 500 to 5000 pM for the second. The first is the more potent here.

Compared with `CC(C)Oc1ccc(-c2nnc(-c3cccc4c3CCC[C@H]4NC(=O)CCN(C)C)s2)cc1C#N` [Compound 257, (R)—N-(5-(5-(3-cyano-4-isopropoxyphenyl)-1,3,4-thiadiazol-2-yl)-1,2,3,4-tetrahydronaphthalen-1-yl)-3-(dimethylamino)propanamide], `CC(C)Oc1ccc(-c2nnc(-c3cccc4c3CCC[C@H]4NC(=O)CN)s2)cc1C#N` [Compound 250] is lower in EC50: over 5000 pM for the first, 500 to 5000 pM for the second.

First: COC(=O)CS(=O)(=O)N[C@H]1CCCc2c(-c3nnc(-c4ccc(OC(C)C)c(C#N)c4)s3)cccc21 [Compound 284, (S)-methyl 2-(N-(5-(5-(3-cyano-4-isopropoxyphenyl)-1,3,4-thiadiazol-2-yl)-1,2,3,4-tetrahydronaphthalen-1-yl)sulfamoyl)acetate]
Second: CNCC(=O)N[C@H]1CCCc2c(-c3nnc(-c4ccc(OC(C)C)c(C#N)c4)s3)cccc21 [Compound 252]
The EC50 of the first is higher: 500 to 5000 pM for the first, 50 to 500 pM for the second. The second is the more potent here.

`CC(C)Oc1ccc(-c2nnc(-c3cccc4c3CCC[C@H]4NCc3ccncc3)s2)cc1C#N` [Compound 262] and `CC(C)Oc1ccc(-c2nnc(-c3cccc4c3CCC[C@@H]4NCc3ccncc3)s2)cc1C#N` [Compound 270] fall in the same range of EC50: 500 to 5000 pM for the first, 500 to 5000 pM for the second.

First: COCCN[C@@H]1CCc2c(-c3cnc(-c4ccc(OC(C)C)c(C#N)c4)s3)cccc21 [Compound 93]
Second: CC(C)Oc1ccc(-c2ncc(-c3cccc4c3CC[C@H]4NS(=O)(=O)CCN3CCCCC3)s2)cc1C#N [Compound 140]
The EC50 of the first is lower: 500 to 5000 pM for the first, over 5000 pM for the second. The first is the more potent here.

Compared with `CC(C)Oc1ccc(-c2nnc(-c3cccc4c3CCC[C@@H]4NC(=O)c3ccncc3)s2)cc1C#N` [Compound 241], `CC(C)Oc1ccc(-c2nnc(-c3cccc4c3CCC[C@H]4NC(=O)[C@@H](N)CO)s2)cc1C#N` [Compound 248] is lower in EC50: 500 to 5000 pM for the first, 50 to 500 pM for the second.

`CC(C)Oc1ccc(-c2nnc(-c3cccc4c3CCC[C@@H]4NCCO)s2)cc1C#N` [Compound 300, (S)-5-(5-(5-((2-hydroxyethyl)amino)-5,6,7,8-tetrahydronaphthalen-1-yl)-1,3,4-thiadiazol-2-yl)-2-isopropoxybenzonitrile] and `CNC(=O)CN[C@@H]1CCCc2c(-c3nnc(-c4ccc(OC(C)C)c(C#N)c4)s3)cccc21` [Compound 305] fall in the same range of EC50: 50 to 500 pM for the first, 50 to 500 pM for the second.

`CC(C)Oc1ccc(-c2nnc(-c3cccc4c3CCC4NS(=O)(=O)CCN3CC[C@@H](O)C3)s2)cc1C#N` (stereo in doubt) [Compound 37, N—((S)-4-(5-(3-cyano-4-isopropoxyphenyl)-1,3,4-thiadiazol-2-yl)-2,3-dihydro-1H-inden-1-yl)-2-((R)-3-hydroxypyrrolidin-1-yl)ethanesulfonamide] and `CC(C)Oc1ccc(-c2ncc(-c3cccc4c3CC[C@@H]4NS(=O)(=O)CCN3CCC[C@@H](O)C3)s2)cc1C#N` [Compound 141, N—((S)-4-(2-(3-cyano-4-isopropoxyphenyl)thiazol-5-yl)-2,3-dihydro-1H-inden-1-yl)-2-((R)-3-hydroxypiperidin-1-yl)ethanesulfonamide] fall in the same range of EC50: 500 to 5000 pM for the first, 500 to 5000 pM for the second.
